Values after ≈ are worked out from the molar mass of the structure shown. Where two headings read alike, the source gives them in different places.
Assays:
[1] = tested on: Mycobacterium tuberculosis H37Rv; test: MIC and MBC by broth microdilution against M. tuberculosis H37Rv; assay type: cell-based, Mycobacterium tuberculosis H37Rv (ATCC 27294)
[2] = Cytotoxicity assay in THP-1 cells; assay type: cell-based, human; conditions: human, THP-1 cells, read-out: LC50 (the source's name)
From the text: (§1) Cytotoxicity results were obtained through lethal concentration for 50% of the cell population, LC50. Table 6. Results obtained from cytotoxicity assays for the esters, represented by LD50 in µg/mL and comparison with MIC values, in µg/mL with toxicity/activity (T/A) index.
(§2) The T/A index quantitatively is the ratio between the lethal concentration (LC50) given by the minimum inhibitory concentration (MIC).

[3] = tested on: human monocytic cell line THP-1 (ATCC56 TIB202); test: Cytotoxicity assay in THP-1 cells; assay type: cell-based; conditions: toxicity/activity index: ratio LC50 (THP-1) / MIC (M. tuberculosis H37Rv)
From the text: as §1, §2

[4] = Chemical stability in phosphate buffer pH 7.4
Method: Chemical hydrolysis was evaluated in phosphate buffer at physiological pH (7.4) to determine its influence in enzymatic studies.
1176 µL pH 7.4 phosphate buffer or pH 5.9 phosphate buffer, 18 µL ACN and 6 µL of a 10-1 M stock solution of the prodrug in ACN were mixed in a 2mL vial. The solution was incubated at 37 °C and 50 µL aliquots were removed, mixed with 450 µL of ACN: H2O 1:1. The solution was analysed by HPLC, the remaining substrate and the correspondent acid were both measured.
The eluant was a mixture of acetonitrile (60%/70%) and aqueous phosphate buffer with 5% of KH2PO4/H3PO4 0.025M (40%/30%). The flow rate was always 1 mL/1 min and wavelength was set at 230 nm. All quantifications were evaluated using calibration curves from stock solutions.
The initial substrate concentration was 5 x 10^-4 M in all stability assays. All incubations were carried out at pH 7.4 and 37 °C under agitation using the phosphate buffer described above as diluting agent. […] Acetonitrile (2%) was used in all studies to ensure adequate solubilization of the substrates.

[5] = Stability in human plasma (enzymatic hydrolysis)
Method: The studies of stability in human plasma were performed in human plasma diluted to 80% with phosphate buffer pH 7.4 of total concentration 0.05 M and ionic strength 0.15 M at 37°C. […] Study of enzymatic hydrolysis. […] Initial substrate concentration (ester) - 5×10^-4M with 2% ACN.
Pooled human plasma (960 µL), pH 7.4 phosphate buffered saline (216 µL), 18 µL ACN and 6 µL of a 10-1 M stock solution of the prodrug in ACN were mixed in a 2mL vial. The suspensions were incubated at 37 °C and 50 µL aliquots were removed, mixed with 450 µL of ACN: ZnSO4 1% 1:1 and centrifuged. The supernatant was removed and analysed by HPLC, the remaining substrate and the correspondent acid measured.
Two HPLC systems were used. The buffer and plasma stability studies were performed in an HPLC system with a photodiode detector L-3000 Photo Diode Array Detector, Merck-Hitachi L-6000 pump, Merck-Hitachi D-2500 integrator, and Merck RP-8 column. […] The eluant was a mixture of acetonitrile (60%/70%) and aqueous phosphate buffer with 5% of KH2PO4/H3PO4 0.025M (40%/30%). The flow rate was always 1 mL/1 min and wavelength was set at 230 nm. All quantifications were evaluated using calibration curves from stock solutions.
The initial substrate concentration was 5 x 10^-4 M in all stability assays. All incubations were carried out at pH 7.4 and 37 °C under agitation using the phosphate buffer described above as diluting agent. […] Acetonitrile (2%) was used in all studies to ensure adequate solubilization of the substrates. The benzoates were added from 10 to 1M acetonitrile stock solutions. After incubation, aliquots of 50 µL were taken into vials containing 450 µL of a 1:1 solution of 1% zinc sulfate and acetonitrile, mixed in a vortex and centrifuged for 10 min at 15,000 rpm. The supernatant was then injected into the HPLC and analysed for quantification of benzoic acid and remaining benzoate. All quantifications were performed using calibration curves.

[6] = Stability in Mycobacterium smegmatis homogenate (enzymatic hydrolysis); conditions: pH 7.4; for half-life at 500 µM: mycobacterium smegmatis homogenate; for half-life: Mycobacterium smegmatis
[7] = tested on: Mycobacterium smegmatis homogenate; test: as above; conditions: Mycobacterium smegmatis homogenate, 37°C
[8] = tested on: Mycobacterium Bovis BCG infecting human macrophages THP-1; assay type: cell-based; conditions: compound concentration 2 µg/ml
[9] = tested on: M. bovis BCG; test: microbe, parasite or virus in culture; assay type: cell-based; conditions: Mycobacterium tuberculosis variant bovis BCG
[10] = tested on: M. smegmatis mc2 155; test: MIC and MBC against M. smegmatis; assay type: cell-based; conditions: Mycolicibacterium smegmatis, MC2155
[11] = Mycobacterium tuberculosis, H37RV
[12] = lethal concentration for 50% of the cell population
[13] = Mycobacterium tuberculosis, H37RV, M. tuberculosis H37Rv, Table 3, read-out: MBC
[14] = Mycobacterium tuberculosis, H37RV, M. tuberculosis H37Rv, Tables 3, 6 and 7, read-out: MIC
[15] = THP-1 monocytic cells, lethal concentration for 50% of the cell population

SMILES | CC50 [2, 12] [mg/L] | T/A [3] | Degradation (%) 24h [4] [%] | Degradation (%) 48h [4] [%] | Degradation (%) 72h [4] [%] | Degradation (%) 168h [4] [%] | Degradation (%) 332h [4] [%] | Degradation (%) 24h [5] [%] | Degradation (%) 48h [5] [%] | Degradation (%) 72h [5] [%] | half-life at 500 µM [6] [h] | Degradation (%) 24h [7] [%] | Degradation (%) 48h [7] [%] | MBC [1, 13] [mg/L] | MIC [1, 14] [mg/L] | CC50 [2, 15] [mg/L] | half-life [6] [h] | other results
CCCCOC(=O)c1cc([N+](=O)[O-])cc([N+](=O)[O-])c1 [Compound 3a] | 456 (≈ 1700 µM) | 14 | 10 | 14 | 18 | 40 | 65 | 86 | 98 | 100 | 6.32 ± 0.44 | 93 | 99 | – | – | – | – | MBC [1, 11]: 128 mg/L (≈ 477 µM); MIC [1, 11]: 32 mg/L (≈ 119 µM)
CCCCCCOC(=O)c1cc([N+](=O)[O-])cc([N+](=O)[O-])c1 [Compound 3b] | 528 (≈ 1780 µM) | 17 | – | – | – | – | – | 74 | 93 | 98 | 80.9 ± 5.5 | 19 | 34 | – | – | – | – | CFU x10^4 ([8]; Time 0 days): 9.2 CFUs per mL; CFU x10^4 ([8]; Time 1 day): 14.58 CFUs per mL; CFU x10^4 ([8]; Time 3 days): 11.87 CFUs per mL; CFU x10^4 ([8]; Time 7 days): 9.83 CFUs per mL
CCCCOC(=O)c1cc([N+](=O)[O-])cc(C(F)(F)F)c1 [Compound 4a, Butyl 3-nitro-5-(trifluoromethyl)benzoate] | – | 0.54 | 5 | 12 | 16 | 35 | 60 | 95 | 100 | 100 | – | 95 | 100 | 1020 (≈ 3520 µM) | 1020 (≈ 3520 µM) | 552 (≈ 1900 µM) | 5.36 ± 0.44 | –
CCCCCCOC(=O)c1cc([N+](=O)[O-])cc(C(F)(F)F)c1 [Compound 4b, Hexyl 3-nitro-5-(trifluoromethyl)benzoate] | – | 0.62 | – | – | – | – | – | 72 | 94 | 98 | – | 15 | 27 | 1020 (≈ 3210 µM) | 1020 (≈ 3210 µM) | 639 (≈ 2000 µM) | 105 ± 10 | –
CCCCNC(=O)c1ccc([N+](=O)[O-])cc1 [Compound 6a, N-butyl-4-nitrobenzamide] | – | – | 0 | 0 | 0 | 0 | 0 | 12 | 23 | 32 | – | 20 | 35 | 256 (≈ 1150 µM) | 128 (≈ 576 µM) | – | 76.5 ± 5.3 | –
CCCCCCNC(=O)c1ccc([N+](=O)[O-])cc1 [Compound 6b, N-hexyl-4-nitrobenzamide] | – | – | – | – | – | – | – | – | – | – | – | 17 | 32 | 64 (≈ 256 µM) | 32 (≈ 128 µM) | – | 87.2 ± 5.8 | –
CCCCNC(=O)c1cc([N+](=O)[O-])cc([N+](=O)[O-])c1 [Compound 7a, N-butyl-3.5-dinitrobenzamide] | 26 (≈ 97.3 µM) | 52 | 0 | 0 | 0 | 0 | 0 | 0 | 0 | 0 | 22.9 ± 1.5 | 52 | 77 | – | – | – | – | MBC [9]: 1 mg/L (≈ 3.74 µM); MIC [9]: 0.5 mg/L (≈ 1.87 µM)
CCCCCCCCCCCCCCCCNC(=O)c1cc([N+](=O)[O-])cc([N+](=O)[O-])c1 [Compound 7g, N-hexadecyl-3.5-dinitrobenzamide] | – | – | – | – | – | – | – | – | – | – | – | 0 | 0 | – | – | – | – | MBC ([1]; M. tuberculosis H37Rv, Table 4): 2 mg/L (≈ 4.59 µM); MIC ([1]; M. tuberculosis H37Rv, Table 4): 2 mg/L (≈ 4.59 µM); MBC [1, 11]: 2 mg/L (≈ 4.59 µM); MIC [1, 11]: 2 mg/L (≈ 4.59 µM); MBC [10]: > 64 mg/L; MIC [10]: 32 mg/L (≈ 73.5 µM); MBC [9]: 4 mg/L (≈ 9.18 µM); MIC [9]: 2 mg/L (≈ 4.59 µM); CC50 ([2]; n/d (no toxicity at maximum tested dose)): > 512 mg/L
CCCCNC(=O)c1cc([N+](=O)[O-])cc(C(F)(F)F)c1 [Compound 8a, N-butyl-3-nitro-5-(trifluoromethyl)-benzamide] | – | 21 | 0 | 0 | 0 | 0 | 0 | 0 | 0 | 0 | – | 23 | 41 | 2 (≈ 6.89 µM) | 2 (≈ 6.89 µM) | 41 (≈ 141 µM) | 63.8 ± 4.1 | –
